Laboratory results published in US12344610B2, “APOL1 inhibitors and methods of use” (Maze Therapeutics, Inc., priority 2022, dated 2025).
pEC50: −log10 of the molar value. Read-outs that look alike come from different tables or passages of the source.

Columns and labels:
Format in all cases: cell-based
[1] = test system: HEK293 clonal cell line overexpressing APOL1 G1; experiment: APOL1 G1 HEK293 cell rescue assay (Example B3); settings: geometric mean of at least 2 runs, † = single run, ¥ = concentration at 50% rescue estimated (no sigmoidal curve)
Procedure, shortened: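 Rescue of cell death caused by APOL1 G1 overexpression was measured in a clonal HEK293 line. Compounds were tested in duplicate on one plate, and EC50s were geometric means across at least two runs on different days. Some values are estimated 50%-rescue concentrations where curve fitting failed.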

[2] = test system: Trypanosoma brucei Lister 427 VSG221 with APOL1 G1 recombinant protein; experiment: APOL1 G1 trypanosome cell rescue assay (Example B5); settings: geometric mean of at least 2 assay runs, † = single assay run
Procedure, shortened: (§1)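 Viability read by CellTiter-Glo luminescence after 20 h co-incubation (37° C, 5% CO2) of 250 trypanosomes/well in modified HMI-9 with test compound (duplicate 11-point, 2-fold dilutions, 0.4% DMSO) and APOL1 protein, […]. Protein: mature residues 28-398, E. coli inclusion-body refolded, tag cleaved, in DDM.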

[3] = test system: Trypanosoma brucei Lister 427 VSG221 with APOL1 G2 recombinant protein; experiment: APOL1 G2 trypanosome cell rescue assay (Example B5); settings: geometric mean of at least 2 assay runs, † = single assay run
Procedure, shortened: as §1

[4] = Homo sapiens, HEK293, HEK293 clonal line overexpressing APOL1 G1
[5] = Trypanosoma brucei, 20 h, read-out: APOL1 G1 Trypanosome Rescue EC50, Trypanosoma brucei Lister 427 VSG221 with APOL1 G1 recombinant protein, 20 hours, CellTiter-Glo
[6] = Trypanosoma brucei, 20 h, read-out: APOL1 G2 Trypanosome Rescue EC50, Trypanosoma brucei Lister 427 VSG221 with APOL1 G2 recombinant protein, 20 hours, CellTiter-Glo
[7] = HEK293 clonal line overexpressing APOL1 G1
[8] = read-out: APOL1 G1 Trypanosome Rescue EC50, Trypanosoma brucei Lister 427 VSG221 with APOL1 G1 recombinant protein, 20 hours, CellTiter-Glo
[9] = read-out: APOL1 G2 Trypanosome Rescue EC50, Trypanosoma brucei Lister 427 VSG221 with APOL1 G2 recombinant protein, 20 hours, CellTiter-Glo

| SMILES | pEC50 [1, 4] | pEC50 [2, 5] | pEC50 [3, 6] | pEC50 [1, 7] | pEC50 [2, 8] | pEC50 [3, 9] |
| --- | --- | --- | --- | --- | --- | --- |
| Cn1c(=O)[nH]c2cc(OCCN3CCC4(CC3)C(=O)Nc3ccc(Cl)cc34)ccc21 [Compound 88, 5-chloro-1′-{2-[(1-methyl-2-oxo-2,3-dihydro-1H-1,3-benzodiazol-5-yl)oxy]ethyl}-1,2-dihydrospiro[indole-3,4′-piperidin]-2-one] | 6.36 | 6.25 | 6.86 | – | – | – |
| O=C1CCc2cc(OCCN3CCC4(CC3)C(=O)Nc3ccc(Cl)cc34)ccc2N1 [Compound 82, 5-chloro-1′-{2-[(2-oxo-1,2,3,4-tetrahydroquinolin-6-yl)oxy]ethyl}-1,2-dihydrospiro[indole-3,4′-piperidin]-2-one] | 6.60 | 6.46 | 6.95 | – | – | – |
| CS(=O)(=O)C1(c2c(F)cc(OCCN3CCC4(CC3)C(=O)Nc3ccc(C#N)cc34)cc2F)COC1 [Compound 84, 1′-{2-[3,5-difluoro-4-(3-methanesulfonyloxetan-3-yl)phenoxy]ethyl}-2-oxo-1,2-dihydrospiro[indole-3,4′-piperidine]-5-carbonitrile] | 6.63 | 6.84 | 7.30 | – | – | – |
| O=C1CCc2cc(OCCN3CCC4(CC3)C(=O)Nc3ccc(Cl)cc34)cnc2N1[C@H]1C[C@H](O)C1 [Compound 267, 5-chloro-1′-[2-({7-oxo-8-[(trans)-3-hydroxycyclobutyl]-5,6,7,8-tetrahydro-1,8-naphthyridin-3-yl}oxy)ethyl]-1,2-dihydrospiro[indole-3,4′-piperidin]-2-one] | 6.86 | 6.94 | 7.47 | – | – | – |
| C[C@]1(O)C[C@@H](n2c(=O)cnc3cc(OCCN4CCC5(CC4)C(=O)Nc4ccc(Cl)cc45)cnc32)C1 [Compound 358, 5-chloro-1′-[2-({3-oxo-4-[(cis)-3-hydroxy-3-methylcyclobutyl]-3H,4H-pyrido[2,3-b]pyrazin-7-yl}oxy)ethyl]-1,2-dihydrospiro[indole-3,4′-piperidin]-2-one] | 6.95 | 7.12 | 7.50 | – | – | – |
| CS(=O)(=O)C1(c2ccc(OCCN3CCC4(CC3)C(=O)Nc3ccc(Cl)cc34)cc2)CC(O)C1 (stereo not drawn) [Compound 270, 5-chloro-1′-(2-{4-[(trans) or (cis)-3-hydroxy-1-methanesulfonylcyclobutyl]phenoxy}ethyl)-1,2-dihydrospiro[indole-3,4′-piperidin]-2-one] | – | – | – | 7.22 | 7.09 | 7.60 |
| CS(=O)(=O)c1c(F)cc(OCCN2CCC3(CC2)C(=O)Nc2ccc(Cl)cc23)cc1F [Compound 89, 5-chloro-1′-[2-(3,5-difluoro-4-methanesulfonylphenoxy)ethyl]-1,2-dihydrospiro[indole-3,4′-piperidin]-2-one] | 6.86 | 6.94 | 7.49 | – | – | – |
| CC(O)c1ncc(OCCN2CCC3(CC2)C(=O)Nc2ccc(C#N)cc23)cc1C(F)(F)F (single isomer, unassigned) [Compound 376, 1′-[2-({6-[(1S) or (1R)-1-hydroxyethyl]-5-(trifluoromethyl)pyridin-3-yl}oxy)ethyl]-2-oxo-1,2-dihydrospiro[indole-3,4′-piperidine]-5-carbonitrile] | 6.89 | – | – | – | 6.94 | 7.40 |
| COC(=O)C1(S(=O)(=O)c2ccc(OCCN3CCC4(CC3)C(=O)Nc3ccc(Cl)cc34)cc2)CC1 [Compound 91, methyl 1-[4-(2-{5-chloro-2-oxo-1,2-dihydrospiro[indole-3,4′-piperidin]-1′-yl}ethoxy)benzenesulfonyl]cyclopropane-1-carboxylate] | 7.00 | 7.08 | 7.69 | – | – | – |
| CC1(S(=O)(=O)c2ccc(OCCN3CCC4(CC3)C(=O)Nc3ccc(Cl)cc34)cc2)COC1 [Compound 92, 5-chloro-1′-(2-{4-[(3-methyloxetan-3-yl)sulfonyl]phenoxy}ethyl)-1,2-dihydrospiro[indole-3,4′-piperidin]-2-one] | 7.00 | 7.00 | 7.55 | – | – | – |
| CS(=O)(=O)C1(c2ncc(OCCN3CCC4(CC3)C(=O)Nc3ccc(OC(F)F)cc34)cn2)CC1 [Compound 6, 5-(difluoromethoxy)-1′-(2-{[2-(1-methanesulfonylcyclopropyl)pyrimidin-5-yl]oxy}ethyl)-1,2-dihydrospiro[indole-3,4′-piperidin]-2-one] | 6.60 | 6.33 | 6.86 | – | – | – |
| CS(=O)(=O)C1(c2ccc(OCCN3CCC4(CC3)C(=O)Nc3ccc(Cl)cc34)cc2)CC(O)C1 (stereo not drawn) [Compound 269, 5-chloro-1′-(2-{4-[(cis) or (trans)-3-hydroxy-1-methanesulfonylcyclobutyl]phenoxy}ethyl)-1,2-dihydrospiro[indole-3,4′-piperidin]-2-one] | – | – | – | 6.49 | 6.56 | 7.10 |
| O=C1Nc2ccc(Cl)cc2C12CCN(CCOc1ccc3[nH]ncc3c1)CC2 [Compound 87, 5-chloro-1′-[2-(2H-indazol-5-yloxy)ethyl]-1,2-dihydrospiro[indole-3,4′-piperidin]-2-one] | 6.55 | 6.42 | 7.02 | – | – | – |
| CC(c1ncc(OCCN2CCC3(CC2)C(=O)Nc2ccc(Cl)cc23)cn1)S(C)(=O)=O (single isomer, unassigned) [Compound 3, 5-chloro-1′-[2-({2-[(1R) or (1S)-1-methanesulfonylethyl]pyrimidin-5-yl}oxy)ethyl]-1,2-dihydrospiro[indole-3,4′-piperidin]-2-one] | – | – | – | 6.59 | 6.49 | 7.04 |
| CC(C)N1C(=O)CCc2cc(OCCN3CCC4(CC3)C(=O)Nc3ccc(C#N)cc34)ccc21 [Compound 96, 2-oxo-1′-(2-{[2-oxo-1-(propan-2-yl)-1,2,3,4-tetrahydroquinolin-6-yl]oxy}ethyl)-1,2-dihydrospiro[indole-3,4′-piperidine]-5-carbonitrile] | 6.83 | 6.84 | 7.28 | – | – | – |
| CS(=O)(=O)N1CCc2cc(OCCN3CCC4(CC3)C(=O)Nc3ccc(Cl)cc34)ccc2C1 [Compound 94, 5-chloro-1′-{2-[(2-methanesulfonyl-1,2,3,4-tetrahydroisoquinolin-6-yl)oxy]ethyl}-1,2-dihydrospiro[indole-3,4′-piperidin]-2-one] | 6.68 | 6.37 | 6.89 | – | – | – |
| CN1C(=O)CCc2cc(OCCN3CCC4(CC3)C(=O)Nc3ccc(C#N)cc34)ccc21 [Compound 95, 1′-{2-[(1-methyl-2-oxo-1,2,3,4-tetrahydroquinolin-6-yl)oxy]ethyl}-2-oxo-1,2-dihydrospiro[indole-3,4′-piperidine]-5-carbonitrile] | 6.34 | 6.15 | 6.65 | – | – | – |
| O=C1Nc2ccc(Cl)cc2C12CCN(CCOc1ccc3c(cnn3[C@H]3C[C@H](O)C3)c1)CC2 [Compound 86, 5-chloro-1′-[2-({1-[(trans)-3-hydroxycyclobutyl]-1H-indazol-5-yl}oxy)ethyl]-1,2-dihydrospiro[indole-3,4′-piperidin]-2-one] | 6.90 | 6.86 | 7.42 | – | – | – |
| CC(O)c1ncc(OCCN2CCC3(CC2)C(=O)Nc2ccc(C#N)cc23)cc1C(F)(F)F (single isomer, unassigned) [Compound 377, 1′-[2-({6-(1S) or (1R)-1-hydroxyethyl]-5-(trifluoromethyl)pyridin-3-yl}oxy)ethyl]-2-oxo-1,2-dihydrospiro[indole-3,4′-piperidine]-5-carbonitrile] | – | – | – | 6.76 | 6.57 | 7.01 |
| CS(=O)(=O)C1(c2ncc(OCCN3CCC4(CC3)C(=O)Nc3ccc(C(F)F)cc34)cn2)CC1 [Compound 5, 5-(difluoromethyl)-1′-(2-{[2-(1-methanesulfonylcyclopropyl)pyrimidin-5-yl]oxy}ethyl)-1,2-dihydrospiro[indole-3,4′-piperidin]-2-one] | 6.53 | 6.77 | 7.28 | – | – | – |
| O=C1Nc2ccc(Cl)cc2C12CCN(CCOc1ccc3c(cnn3[C@H]3C[C@@H](O)C3)c1)CC2 [Compound 85, 5-chloro-1′-[2-({1-[(cis)-3-hydroxycyclobutyl]-1H-indazol-5-yl}oxy)ethyl]-1,2-dihydrospiro[indole-3,4′-piperidin]-2-one] | 6.80 | 6.72 | 7.31 | – | – | – |
| CC1(O)CN(c2ncc(OCCN3CCC4(CC3)C(=O)Nc3ccc(C(F)F)cc34)cn2)C1 [Compound 395, 5-(difluoromethyl)-1′-(2-{[2-(3-hydroxy-3-methylazetidin-1-yl)pyrimidin-5-yl]oxy}ethyl)-1,2-dihydrospiro[indole-3,4′-piperidin]-2-one] | 6.80 | 6.51 | 6.97 | – | – | – |
